Measurements as given in US20240385087A1, “METHOD FOR STAINING MITOCHONDRIA” (TOCRIS COOKSON LIMITED, priority 2021, published 2024).
Entries after “also recorded” stand apart in the source; their conditions may differ.

Assays:
Format in all cases: cell-based
[1] = test system: mitochondria in HeLa cells; test: Time-course live-cell confocal imaging of stained HeLa cells (photostability, localisation, phototoxicity); conditions: 50 nM for 60 mins; for localisation at mitochondria over time / photostability / signal over time / (photo)-toxicity during prolonged imaging: live imaging every 5 seconds for 240 frames
Method: Within this time frame, COMPOUND 1 intensity drops by ˜25% during the imaging period compared to the comparator which drops by 65%.
Data from two samples of COMPOUND 3,measured at different timepoints is overlaid in the graph (right).
(§1) Mitochondrial stains were diluted to working concentrations from 10 mM DMSO stock solutions into DMEM containing 10% FCS and 25 mM HEPES. Solutions were incubated with HeLa cells at 37° C. in a humidified 5% CO2 incubator for the indicated period of time prior to imaging, typically without a washout step (though a washout step can be performed). A Nikon A1R TiE confocal laser scanning microscope equipped with environmental chamber (37° C.) was used for live-cell imaging, employing 561 nm and 640 nm diode laser lines, a Nikon A1R Plan APO VC 60x Oil lens (NA 1.4), pinhole at 1AU. The images were acquired using NIS Elements software and processed using ImageJ.

[2] = test system: mitochondria in HeLa cells; test: Mitochondrial localisation and membrane-potential dependence in HeLa cells (oligomycin / CCCP treatment, confocal imaging)
Method: as §1

HeLa cells = test: Optimization of stain concentration for imaging HeLa cells; conditions: 50 nM, 60 mins, no washout, same laser power/settings
Method: HeLa cells were incubated with the comparator or COMPOUND 1 for 60 mins at indicated doses and imaged at the same laser power/settings. NOTE: no washout step to remove unbound comparator was performed (manufacturer recommends this) to enable direct comparison with COMPOUND 1. Some toxicity is observed with 100 nM of comparator.
as §1

| SMILES | localisation at mitochondria over time [1] | photostability / signal over time [1] | (photo)-toxicity during prolonged imaging [1] | effect of de-polarizing the mitochondrial membrane with CCCP on stain ([2]; HeLa cells, 50 nM stain for 60 mins, then CCCP 10 μM up to 60 minutes) | effect of hyper-polarizing the mitochondrial membrane with oligomycin on stain ([2]; HeLa cells, 50 nM stain for 60 mins, then Oligomycin 5 μg/mL up to 60 minutes) | localisation of stain ([2]; mitochondrial stain, due to charge potential across the mitochondrial membrane) | drop of normalized intensity during the imaging period ([1]; live imaging every 5 seconds for 240 frames (20 minutes), 100% = maximum intensity peak) [%] | imaging result (HeLa cells) |
| --- | --- | --- | --- | --- | --- | --- | --- | --- |
| Cc1ccccc1-c1c2ccc(=[N+]3CCC3)cc-2oc2cc(N3CCC3)ccc12 [COMPOUND 3, 1-(6-(azetidin-1-yl)-9-(o-tolyl)-3H-xanthen-3-ylidene)azetidin-1-ium] | higher non-specific cytoplasmic background (and lower mitochondrial labelling) | retention of signal during the first 10 mins of imaging, but then the signal rapidly drops |  |  |  |  |  |  |
| c1ccc(-c2c3ccc(=[N+]4CCC4)cc-3oc3cc(N4CCC4)ccc23)cc1 [COMPOUND 4, 1-(6-(azetidin-1-yl)-9-phenyl-3H-xanthen-3-ylidene)azetidin-1-ium chloride] | remain faithfully localized to mitochondria over the entire imaging period | higher signal retention over time than COMPOUND 3 | no observable phototoxicity effects |  |  |  |  |  |
| C[Si]1(C)C2=CC(=[N+]3CCC3)C=CC2=C(c2ccccc2)c2ccc(N3CCC3)cc21 [COMPOUND 1, 1-(7-(azetidin-1-yl)-5,5-dimethyl-10-phenyldibenzo[b,e]silin-3 (5H)-ylidene)azetidin-1-ium chloride] | remains clearly localized at the mitochondria; also recorded: appears to mark the mitochondria more clearly than COMPOUND 2 over time |  | no apparent toxicity | dispersion | accumulation | localizes specifically to the mitochondria | ~25 | excellent results |
